Measurements taken from ChEMBL document CHEMBL1201862, “PubChem BioAssay data set” (2004).
Activity calls are given as the source filed them.

Experiments:
[1] = target: T1, Zinc finger protein mex-5 (Caenorhabditis elegans, UniProt Q9XUB2); experiment: MEX-5/TCR-2 RNA interaction inhibitors, dose response, biochemical, C. elegans, fluorescence polarization (AID 1960)
T1 sequence (Q9XUB2 whole entry): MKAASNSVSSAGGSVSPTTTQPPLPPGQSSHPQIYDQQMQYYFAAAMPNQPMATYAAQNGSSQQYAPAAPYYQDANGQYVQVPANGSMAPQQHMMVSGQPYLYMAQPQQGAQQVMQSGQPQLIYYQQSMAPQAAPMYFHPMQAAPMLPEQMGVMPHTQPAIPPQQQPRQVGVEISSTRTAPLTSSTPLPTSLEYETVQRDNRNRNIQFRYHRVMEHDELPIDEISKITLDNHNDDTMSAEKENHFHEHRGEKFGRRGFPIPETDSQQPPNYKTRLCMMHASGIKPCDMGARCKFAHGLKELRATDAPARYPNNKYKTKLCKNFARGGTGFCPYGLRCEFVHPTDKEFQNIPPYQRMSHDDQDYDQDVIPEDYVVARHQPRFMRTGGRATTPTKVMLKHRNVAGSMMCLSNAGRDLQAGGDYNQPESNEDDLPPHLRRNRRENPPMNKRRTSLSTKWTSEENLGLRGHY

[2] = target: T2, RNA-binding protein pos-1 (Caenorhabditis elegans, UniProt G5EF15); experiment: inhibitors of POS-1/mex-3 RNA binding, dose response, biochemical, fluorescence polarization (AID 1964);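 further: purified POS-1 fused to maltose binding protein made in E. coli; potency of compounds blocking POS-1 binding to fluorescent RNA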
T2 sequence (G5EF15 whole entry): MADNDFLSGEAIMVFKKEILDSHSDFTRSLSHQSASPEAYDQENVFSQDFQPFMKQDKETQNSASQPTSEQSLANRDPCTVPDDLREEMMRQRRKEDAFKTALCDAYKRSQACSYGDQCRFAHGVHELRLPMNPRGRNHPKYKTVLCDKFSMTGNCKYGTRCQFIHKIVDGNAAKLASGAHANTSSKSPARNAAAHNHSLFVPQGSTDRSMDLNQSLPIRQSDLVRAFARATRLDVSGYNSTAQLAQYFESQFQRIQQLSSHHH

[3] = target: T3, Polyadenylate-binding protein 1 (Homo sapiens, UniProt P11940); experiment: PABP1 MLLE–PAM2 interaction inhibitors, dose response, miRNA deadenylation inhibitor project, biochemical, fluorescence polarization, Cy5-PAM2 peptide, secondary (AID 602260); assay type: functional; conditions: read-out: IC50_Mean
T3 sequence (P11940 whole entry): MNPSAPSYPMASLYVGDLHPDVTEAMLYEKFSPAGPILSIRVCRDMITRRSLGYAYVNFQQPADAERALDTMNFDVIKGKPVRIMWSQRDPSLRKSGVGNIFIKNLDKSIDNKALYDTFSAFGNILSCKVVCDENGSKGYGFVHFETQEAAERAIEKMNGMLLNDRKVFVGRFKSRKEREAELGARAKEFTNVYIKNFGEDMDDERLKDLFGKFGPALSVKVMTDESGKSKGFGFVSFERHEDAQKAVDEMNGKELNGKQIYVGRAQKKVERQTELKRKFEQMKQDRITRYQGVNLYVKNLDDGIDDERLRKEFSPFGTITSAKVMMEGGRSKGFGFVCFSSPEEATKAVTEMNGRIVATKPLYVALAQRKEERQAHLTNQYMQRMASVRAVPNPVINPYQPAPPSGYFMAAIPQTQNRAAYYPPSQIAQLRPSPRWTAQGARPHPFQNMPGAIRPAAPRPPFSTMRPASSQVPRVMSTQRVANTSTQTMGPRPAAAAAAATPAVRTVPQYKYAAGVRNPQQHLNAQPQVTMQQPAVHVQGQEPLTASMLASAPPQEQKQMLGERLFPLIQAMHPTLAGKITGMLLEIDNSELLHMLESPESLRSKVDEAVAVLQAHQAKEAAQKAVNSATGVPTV

[4] = target: T3, Polyadenylate-binding protein 1; experiment: PABP1 MLLE–PAM2 binding inhibitor potency, dose response, biochemical, fluorescence polarization, FITC-PAM2 peptide (AID 602259); assay type: functional; conditions: read-out: IC50_Mean
Prothrombin = Prothrombin (Homo sapiens, UniProt P00734); experiment: Thrombin 1536 HTS Dose Response Confirmation. [Related pubchem assays: 1046 (Thrombin 1536 HTS; hits were confirmed in this assay)]; assay type: functional
[5] = control 3'UTR Renilla luciferase suppression, dose response, counter-screen for Shn3 inhibitor project, cell-based, Clone20-Shn3RL, cherry-picked (AID 624133); assay type: functional
[6] = Shn3 3'UTR reporter inhibitors, dose response, cell-based, Clone20 osteoblasts, firefly luciferase, cherry-picked (AID 624132); assay type: functional;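 further: firefly luciferase luminescence from reporter carrying the Shn3 3'UTR in osteoblasts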
Paired box protein Pax-8 = Paired box protein Pax-8 (Homo sapiens, UniProt Q06710); experiment: inhibitors of PAX8-driven TPO luciferase reporter, dose response, RMG-I cells, cherry-pick (AID 687027); assay type: functional, cell-based;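 further: luciferase reporter driven by Pax8 target thyroperoxidase promoter measured by SteadyGlo luminescence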
Chain of Paired box protein Pax-8 (Q06710 whole entry): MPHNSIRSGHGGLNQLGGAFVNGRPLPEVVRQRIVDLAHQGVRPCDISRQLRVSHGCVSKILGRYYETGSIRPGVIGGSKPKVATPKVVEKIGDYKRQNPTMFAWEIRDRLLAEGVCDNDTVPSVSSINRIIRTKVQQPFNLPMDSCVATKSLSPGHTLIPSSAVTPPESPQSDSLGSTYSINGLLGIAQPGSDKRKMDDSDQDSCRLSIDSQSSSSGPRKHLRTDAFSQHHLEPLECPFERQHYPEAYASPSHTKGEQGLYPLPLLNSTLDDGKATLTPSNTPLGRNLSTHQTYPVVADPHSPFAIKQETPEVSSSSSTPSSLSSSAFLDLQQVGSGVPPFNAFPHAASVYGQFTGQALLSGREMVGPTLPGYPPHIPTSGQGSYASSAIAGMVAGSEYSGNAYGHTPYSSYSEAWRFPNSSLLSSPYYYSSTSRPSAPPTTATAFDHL

[7] = intracellular Trypanosoma cruzi inhibitors in host cells – cell-based, plate reader, cherry-pick samples, set 3, dose response (AID 651818); assay type: functional;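 further: compounds incubated with infected cells for about four days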

## c1ccc(C2=NNC(c3ccccn3)=NN2)nc1
[1]
  EC50: 22.4 µM (active)
[2]
  EC50: 25.3 µM (active)
[3]
  IC50: > 66 µM (inactive)
[4]
  IC50: > 66 µM (inactive)

## CC(C)c1nnc(NC(=O)c2cnccn2)s1
Prothrombin
  IC50: > 50 µM (not active)

## Cc1ccc(C(=O)n2ncn(C)c2=S)cc1
Prothrombin
  IC50: 1.02 µM (active)

## COc1ccc(CC(=O)n2nc(-c3ccccc3)nc2NCc2ccco2)cc1
Prothrombin
  IC50: 8.75 µM (active)

## Cc1ccc[n+](-c2[nH]c(=O)sc2C=NNC(=O)c2ccccc2[O-])c1
[1]
  EC50: 38.5 µM (active)
[2]
  EC50: 42.4 µM (active)
[3]
  IC50: > 66 µM (inactive)
[4]
  IC50: 43.9 µM (inactive)

## C#CCNc1cc(C)nc2ncnn12
Prothrombin
  IC50: > 50 µM (not active)

## CCN(CC)S(=O)(=O)c1cccc(NC(=O)/C=C/c2cccc([N+](=O)[O-])c2)c1
Prothrombin
  IC50: > 50 µM (not active)

## CCCCCCC#Cc1ccc2c(c1)COc1c3ccccc3nn1-2
[5]
  AC50: 7.68 µM (active)

## COc1ccc(CNc2nc(-c3cccnc3)nn2C(=O)C(C)C)cc1
Prothrombin
  IC50: 0.167 µM (active)

## CCC(C)(O)C(=O)OC1C(=O)OC2CC3C(C)=CC(=O)C(O)C3(C)C3C4(O)OCC23C1C(C)C4O (stereo not drawn)
[6]
  AC50: 0.866 µM (active)
Paired box protein Pax-8
  AC50: 0.426 µM (active)
[5]
  AC50: 5.79 µM (active)

## C[C@H](CO)N1C[C@H](C)[C@@H](CN(C)Cc2ccc(C(=O)Nc3ccccc3N)cc2)Oc2c(NC(=O)c3ccc(-c4nccs4)cc3)cccc2C1=O
[7]
  AC50: 2.85 µM (active)

## C[C@@H]1CN([C@@H](C)CO)C(=O)Cc2cc(NC(=O)Nc3ccc4c(c3)OCO4)ccc2O[C@@H]1CN(C)Cc1ccc(-c2ccccc2)cc1
[7]
  AC50: 4.26 µM (active)

## C[C@H]1CN([C@@H](C)CO)C(=O)c2cccc(NS(=O)(=O)c3ccc(F)cc3)c2O[C@H]1CN(C)Cc1ccc(C(=O)Nc2ccccc2N)cc1
[7]
  AC50: 3.43 µM (active)

## C[C@@H]1CN([C@H](C)CO)C(=O)Cc2cc(NC(=O)Nc3ccc(F)cc3)ccc2O[C@H]1CN(C)Cc1ccc(Cl)c(Cl)c1
[7]
  AC50: 4.44 µM (active)
Paired box protein Pax-8
  AC50: 16.2 µM (active)

## C[C@H]1CN([C@@H](C)CO)C(=O)c2cccc(NC(=O)C3CCCCC3)c2O[C@@H]1CN(C)Cc1ccc(Oc2ccccc2)cc1
[7]
  AC50: 4.77 µM (active)

## C[C@H]1CN([C@@H](C)CO)C(=O)Cc2cc(NC(=O)Nc3ccc(C(F)(F)F)cc3)ccc2O[C@@H]1CN(C)Cc1ccc(-c2ccccc2)cc1
[7]
  AC50: 3.1 µM (active)

## C[C@H]1CN([C@@H](C)CO)C(=O)c2cccc(NC(=O)c3cnccn3)c2O[C@@H]1CN(C)Cc1ccc(C(=O)Nc2ccccc2N)cc1
[7]
  AC50: 2.99 µM (active)

## Cc1ccc(S(=O)(=O)N(C)C[C@@H]2Oc3c(NC(=O)Nc4ccc(C(F)(F)F)cc4)cccc3C(=O)N([C@H](C)CO)C[C@@H]2C)cc1
[7]
  AC50: 5.16 µM (active)

## CC(C)c1ccc(N(CC(=O)N/N=C/c2ccc(OC3CSC3)cc2)S(=O)(=O)c2ccccc2)cc1
Prothrombin
  IC50: > 50 µM (not active)
